Article PMC12314183, “RM2 and DB15 analogues bearing [^177Lu]Lu-DOTAGA via different linkers, as radiotherapeutics: a head-to-head comparative study” (EJNMMI Radiopharmacy and Chemistry, 2025)

Assays:
tumours = conditions: ref Dumont et al. [2013], cited from earlier work
Description: For [^177Lu]Lu-RM2 (Dumont et al. [2013]), the reported dose per animal was 250 pmol peptide corresponding to 4.63 MBq.

[1] = test system: PC-3 xenograft bearing mice; set-up: AUC Kidneys: unit not given beside the values; conditions: mouse, in vivo
[2] = 5 min pi, ref Nock et al. [2017]; cited from earlier work
Description: (§1) In comparison with [^177Lu]Lu-NeoBomb1 (Dalm et al. [2017]; Nock et al. [2017]), [^177Lu]Lu-AU-SAR-M1 utilizes a different chelator (DOTAGA for AU-SAR-M1 and DOTA for NeoBomb1).

[3] = test system: PC-3 xenograft bearing mice; conditions: 4 h pi, ref Dalm et al. [2017], cited from earlier work
Description: as §1

GRPR = target: T1, GRPR (Homo sapiens, UniProt P30550); assay: Receptor affinity and kinetics by LigandTracer on living PC-3 cells; format: binding
T1 construct: host or cells: PC-3 (human prostate cancer cell line)
Method: Receptor affinity was measured using a LigandTracer yellow (Ridgeview Instruments AB, Uppsala, Sweden). For each measurement 3 million PC-3 cells were seeded in 100 mm dishes (Corning St. Oneonta, N.Y., USA) the day before the experiment. Three concentrations for each radioligand were tested (1, 3 and 5 nM) in order to determine the association values. After reaching plateau, the media containing the radioligands were removed, fresh complete media were introduced in the plates and the dissociation phase was measured overnight.

[4] = test system: PC-3 xenograft bearing mice; assay: Biodistribution in PC-3 xenograft bearing mice; conditions: mouse, in vivo
Method: The biodistribution profile for the four radioligands was determined in female Balb/c nu/nu mice. All the animals were subcutaneously implanted with a suspension of 8 × 10^6 PC-3 cells in the right hind leg. After approximately 3–4 weeks, tumours were developed and animals were randomized in groups of four (with the exception of the Block groups comprising instead 3 animals). For each radioligand 3 groups were used, namely, 4 h, 23 h pi and 4 h Block. Each animal received 2.82 mg of sacubitril (in the form of 12 mg of an Entresto pill suspension) per os and after 30 min, a bolus iv injection of 100–110 kBq of [^177Lu]Lu-peptide (corresponding to 100 pmol total peptide). Animals were euthanized at the predetermined time points and tissues of interest and xenografts were collected, weighted and their activity content was measured in the gamma counter. […] Statistical analysis was performed using GraphPad Prism 10 and a two-way ANOVA with Tuckey’s post hock analysis. Area under curve for kidneys and tumours was estimated by fitting a one-phase decay model and calculating the area under the resulting equation.

[5] = living PC-3 cells, 1:1 model used (footnote)

T1 sequence (P30550 whole entry): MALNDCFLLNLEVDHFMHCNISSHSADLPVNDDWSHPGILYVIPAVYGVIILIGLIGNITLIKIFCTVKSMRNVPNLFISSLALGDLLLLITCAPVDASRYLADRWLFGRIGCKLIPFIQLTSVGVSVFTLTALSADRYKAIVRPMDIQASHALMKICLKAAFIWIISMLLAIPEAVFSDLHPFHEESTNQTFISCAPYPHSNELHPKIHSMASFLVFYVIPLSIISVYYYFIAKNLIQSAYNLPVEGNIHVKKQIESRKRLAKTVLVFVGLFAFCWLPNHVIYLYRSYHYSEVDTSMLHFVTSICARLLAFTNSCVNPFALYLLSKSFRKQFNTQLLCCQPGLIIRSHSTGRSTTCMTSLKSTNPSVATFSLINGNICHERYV

DOTA-4-amino-1-carboxymethyl-piperidine-DPhe-Gln-Trp-Ala-Val-Gly-His-Sta-Leu-NH2 [[^177Lu]Lu-RM2]
tumour uptake (tumours; 4 h pi, 250 pmol peptide, 4.63 MBq): 10.97 ± 0.99 %IA/g
activity uptake in pancreas (tumours; 4 h pi): 0.70 ± 0.12 %IA/g
activity remaining in the tumours (tumours; 24 h pi relative to 4 h pi): approximately 50%

CC(C)C[C@H](NC(=O)C[C@H](O)[C@H](CC(C)C)NC(=O)[C@H](Cc1c[nH]cn1)NC(=O)CN(C)C(=O)[C@@H](NC(=O)[C@H](C)NC(=O)[C@H](Cc1c[nH]c2ccccc12)NC(=O)[C@H](CCC(N)=O)NC(=O)[C@@H](Cc1ccccc1)NC(=O)CN1CCC(NC(=O)COCCOCCNC(=O)CCC(C(=O)O)N2CCN(CC(=O)O)CCN(CC(=O)O)CCN(CC(=O)O)CC2)CC1)C(C)C)C(N)=O (some centres unmarked) [[^177Lu]Lu-AU-RM26-M2, DOTAGA-PEG2-Pip-[NMe-Gly^11]RM26, metal not drawn]
AUC Kidneys [1]: 56
AUC Tumour [1]: 62

DOTA-AMA-DIG-DPhe-Gln-Trp-Ala-Val-Gly-His-NHCH[(CH2-CH(CH3)2]2 [[^177Lu]Lu-NeoBomb1, Lu-177-based GRPR-antagonist already tested in patients]
intact peptide detected in mice circulation [2]: 95%
tumour values ([3]; PC-3 xenograft bearing mice, 200 pmol – 1 MBq): 17.9 ± 3.3 %IA/g
kidneys uptake [3]: 2.5%

CCNC(=O)[C@H](CC(C)C)NC(=O)[C@H](Cc1c[nH]cn1)NC(=O)CN(C)C(=O)[C@@H](NC(=O)[C@H](C)NC(=O)[C@H](Cc1c[nH]c2ccccc12)NC(=O)[C@H](CCC(N)=O)NC(=O)[C@@H](Cc1ccccc1)NC(=O)COCC(=O)Nc1ccc(CNC(=O)CCC(C(=O)O)N2CCN(CC(=O)O)CCN(CC(=O)O)CCN(CC(=O)O)CC2)cc1)C(C)C (some centres unmarked) [[^177Lu]Lu-AU-SAR-M1, DOTAGA-AMA-DIG-SAR, metal not drawn]
ka1 (GRPR; living PC-3 cells, 1, 3 and 5 nM, 1:2 model): 65700 M⁻¹ s⁻¹
ka2 (GRPR; living PC-3 cells, 1:2 model): 614000 M⁻¹ s⁻¹
kd1 (GRPR; living PC-3 cells, 1:2 model): 1.76 × 10^–6 s^−1
kd2 (GRPR; living PC-3 cells, 1:2 model): 7.43 × 10^–4 s^−1
AUC Kidneys [1]: 45
AUC Tumour [1]: 242
AUC ratio Tumour/Kidneys [1]: 5.4
tumour-to-kidney ratio for the estimated AUC, times better than the next candidate [4]: 1.4 times

CCNC(=O)[C@H](CC(C)C)NC(=O)[C@H](Cc1c[nH]cn1)NC(=O)CN(C)C(=O)[C@@H](NC(=O)[C@H](C)NC(=O)[C@H](Cc1c[nH]c2ccccc12)NC(=O)[C@H](CCC(N)=O)NC(=O)[C@@H](Cc1ccccc1)NC(=O)COCC(=O)Nc1ccc(CNC(=O)[C@H](CCCNC(=N)N)NC(=O)CCC(C(=O)O)N2CCN(CC(=O)O)CCN(CC(=O)O)CCN(CC(=O)O)CC2)cc1)C(C)C (some centres unmarked) [[^177Lu]Lu-AU-SAR-M2, DOTAGA-Arg-AMA-DIG-SAR, metal not drawn]
ka1 (GRPR; [5]): 90900 M⁻¹ s⁻¹
kd1 (GRPR; [5]): 6.44 × 10^–7 s^−1
AUC Kidneys [1]: 68
AUC Tumour [1]: 259
AUC ratio Tumour/Kidneys [1]: 3.8
Tumour-to-Kidneys AUC ratio, fold higher than [^177Lu]Lu-AU-RM26-M4 [1]: 1.6 fold
Tumour-to-Kidneys AUC ratio, fold higher than [^177Lu]Lu-AU-SAR-M1 [1]: 1.4 fold
